From ChEMBL document CHEMBL2429827, “Pharmacological evaluation of some novel synthesized compounds derived from spiro(cyclohexane-1,2-thiazolidines)” (2013) come the findings set out here.

In one assay the test system is MCF7. Description: Cytotoxicity against human MCF7 cells at 100 ug/ml after 72 hrs by SRB assay. The assay is classed as functional. Background: Sulforhodamine B stains cellular protein and so reports cell mass.
The next assay deals with HepG2. Kind of assay: Cytotoxicity against human HepG2 cells at 100 ug/ml after 72 hrs by SRB assay. Type of assay: functional.
The test system of assay [1] is Radical scavenging activity. Kind of assay: Antioxidant activity assessed as DPPH radical scavenging activity at 50 ug/ml after 30 mins by spectroscopic analysis. Type of assay: functional.
In assay [2] the test system is Radical scavenging activity. Description: Antioxidant activity assessed as DPPH radical scavenging activity at 100 ug/ml after 30 mins by spectroscopic analysis. Type of assay: functional.
In assay [3] the test system is Bacillus subtilis. Description: Antibacterial activity against Bacillus subtilis NRRL B-543 after 24 hrs by agar diffusion method. The assay is classed as functional, organism-based. On the technique in general: A growth-free zone around the sample is the usual read-out of agar diffusion tests.
Assay [4] concerns Aspergillus niger. Kind of assay: Antifungal activity against Aspergillus niger after 24 hrs by agar diffusion method. Type of assay: functional, organism-based.
In assay [5] the test system is Escherichia coli. Description: Antibacterial activity against Escherichia coli NRRL B-210 after 24 hrs by agar diffusion method. Type of assay: functional, organism-based.
For assay [6], the system named is Staphylococcus aureus. Kind of assay: Antibacterial activity against Staphylococcus aureus NRRL B-313 after 24 hrs by agar diffusion method. Type of assay: functional, organism-based.
For assay [7], the system named is Candida albicans. Description: Antifungal activity against Candida albicans NRRL Y-477 after 24 hrs by agar diffusion method. Type of assay: functional, organism-based.
The test system of assay [8] is Aspergillus niger. Description: Antifungal activity against Aspergillus niger after 48 hrs by two-fold serial dilution technique. The assay is classed as functional.
Assay [9] has as its system Bacillus subtilis. Kind of assay: Bacteriostatic activity against Bacillus subtilis NRRL B-543 after 24 hrs by two-fold serial dilution technique. The assay is classed as functional. The settings on record: NRRL B-543, 24 h.
Assay [10] concerns Staphylococcus aureus. Kind of assay: Bacteriostatic activity against Staphylococcus aureus NRRL B-313 after 24 hrs by two-fold serial dilution technique. The assay is classed as functional. Conditions: NRRL B-313, 24 h.
Assay [11] has as its system Candida albicans. Description: Antifungal activity against Candida albicans NRRL Y-477 after 48 hrs by two-fold serial dilution technique. Type of assay: functional. Conditions: NRRL Y-477, 48 h.
For assay [12], the system named is Escherichia coli. Kind of assay: Bacteriostatic activity against Escherichia coli NRRL B-210 after 24 hrs by two-fold serial dilution technique. Type of assay: functional. The settings on record: NRRL B-210, 24 h.

Converted amounts (≈) assume the structure as drawn. The source made the active and inactive calls. The calls are words filed in the database; no cut-off is given here.

Broadly, the MIC is the least concentration at which growth counts as inhibited. Low values mean inhibition by little substance, high ones a need for much substance.

For `CC(=O)Nc1nc2c(c(-c3ccc(C)cc3)c1C#N)SC1(CCCCC1)N2c1ccc(F)cc1`, the Activity with MCF7 amounted to 65%; with HepG2 it was 50.63%; in [1], 49.9%; in [2] it was 79.8%.

As for `O=C1/C(=C\c2ccc(Cl)cc2)SC2(CCCCC2)N1c1ccc(Br)cc1`, the result in the assay with Bacillus subtilis [3] and in the assay on Candida albicans [7] was Active. The outcome with Aspergillus niger [4], in the assay with Escherichia coli [5] and with Staphylococcus aureus [6] was inactive.

Consider `Cc1ccc(-c2c3c(nc4[nH]c(=S)nc(NN)c24)N(c2ccc(F)cc2)C2(CCCCC2)S3)cc1`, for which the Activity is 45.62% in the assay with MCF7, 15.65% with HepG2, 50.2% in assay [1] and 78.2% in [2].

As to `O=C1CSC2(CCCCC2)N1c1ccc(F)cc1`, the outcome with Bacillus subtilis [3], in the assay on Aspergillus niger [4], in the assay with Escherichia coli [5], in the assay on Staphylococcus aureus [6] and in the assay on Candida albicans [7] was Active. For the same compound, the MIC with Aspergillus niger [8] came out at 0.125 µg/mL (≈ 0.471 µM); in the assay with Bacillus subtilis [9], 0.125 µg/mL (≈ 0.471 µM); against Staphylococcus aureus [10], 0.15 µg/mL (≈ 0.565 µM); against Candida albicans [11], 0.125 µg/mL (≈ 0.471 µM); against Escherichia coli [12] it was 0.125 µg/mL (≈ 0.471 µM).

Regarding `N/N=C1\CSC2(CCCCC2)N1c1ccc(F)cc1`, the outcome in the assay on Bacillus subtilis [3], in the assay on Aspergillus niger [4], in the assay on Staphylococcus aureus [6] and with Candida albicans [7] was Active. For the same compound, the MIC amounted to 0.45 µg/mL (≈ 1.61 µM) in the assay with Aspergillus niger [8], 0.4 µg/mL (≈ 1.43 µM) against Bacillus subtilis [9], 0.4 µg/mL (≈ 1.43 µM) with Staphylococcus aureus [10] and 0.435 µg/mL (≈ 1.56 µM) against Candida albicans [11]. Further, the result in the assay on Escherichia coli [5] was inactive.

On to `Fc1ccc(N2/C(=N/Nc3ccccc3)CSC23CCCCC3)cc1`, for which the outcome in the assay with Bacillus subtilis [3], in the assay with Aspergillus niger [4] and in the assay with Escherichia coli [5] was inactive. Besides, the outcome with Staphylococcus aureus [6] and in the assay on Candida albicans [7] was Active.

As to `O=C1/C(=N\Nc2ccc([N+](=O)[O-])cc2)SC2(CCCCC2)N1c1ccc(F)cc1`, the outcome in the assay with Bacillus subtilis [3], with Staphylococcus aureus [6] and with Candida albicans [7] was Active. Further, the result in the assay with Aspergillus niger [4] and in the assay with Escherichia coli [5] was inactive. In addition, the MIC stood at 0.3 µg/mL (≈ 0.724 µM) with Aspergillus niger [8], 0.175 µg/mL (≈ 0.422 µM) with Bacillus subtilis [9], 0.175 µg/mL (≈ 0.422 µM) with Staphylococcus aureus [10] and 0.45 µg/mL (≈ 1.09 µM) in the assay with Candida albicans [11].

In the case of `NS(=O)(=O)c1ccc(/N=C2\CSC3(CCCCC3)N2c2ccc(F)cc2)cc1`, the result in the assay with Bacillus subtilis [3], in the assay on Staphylococcus aureus [6] and in the assay on Candida albicans [7] was Active. The result in the assay with Aspergillus niger [4] and in the assay with Escherichia coli [5] was inactive.

As for `Cc1ccc(-c2c3c(nc4[nH]c(=S)[nH]c(=S)c24)N(c2ccc(F)cc2)C2(CCCCC2)S3)cc1`, the Activity is 64.2% with MCF7, 50.21% in the assay on HepG2, 60% in assay [1] and 84.6% in assay [2].

For the compound `Cc1ccc(C2NOC3=C2SC2(CCCCC2)N3c2ccc(F)cc2)cc1` (centres undefined), the Activity in the assay on MCF7 was determined as 56.62%; in the assay with HepG2, 45.6%; in [1] it was 41%; in assay [2], 60.5%. For the same compound, the result in the assay with Bacillus subtilis [3], with Aspergillus niger [4], with Escherichia coli [5] and in the assay on Staphylococcus aureus [6] was inactive. Further, the result in the assay with Candida albicans [7] was Active.

For `Cc1ccc(-c2c3c(nc4nc(C)[nH]c(=O)c24)N(c2ccc(F)cc2)C2(CCCCC2)S3)cc1`, the Activity in the assay with MCF7 is 84%; with HepG2, 78.85%; in assay [1], 65%; in assay [2], 92.5%.

With `Cc1ccc(/C=C2/SC3(CCCCC3)N(c3ccc(F)cc3)C2=O)cc1`, the Activity amounted to 61.2% with MCF7, 50.32% in the assay with HepG2, 41.1% in assay [1] and 66.8% in assay [2].

On to `Cc1ccc(-c2c3c(oc(=O)c2C#N)N(c2ccc(F)cc2)C2(CCCCC2)S3)cc1`, for which the result in the assay on Bacillus subtilis [3], with Aspergillus niger [4], with Staphylococcus aureus [6] and in the assay with Candida albicans [7] was Active. For the same compound, the MIC amounted to 0.3 µg/mL (≈ 0.694 µM) in the assay with Aspergillus niger [8], 0.12 µg/mL (≈ 0.277 µM) with Bacillus subtilis [9], 0.125 µg/mL (≈ 0.289 µM) in the assay on Staphylococcus aureus [10] and 0.2 µg/mL (≈ 0.462 µM) against Candida albicans [11]. Besides, the outcome with Escherichia coli [5] was inactive.

`O=C1CSC2(CCCCC2)N1c1ccc(Br)cc1`: the result with Bacillus subtilis [3], with Aspergillus niger [4], in the assay with Escherichia coli [5], in the assay on Staphylococcus aureus [6] and in the assay with Candida albicans [7] was Active. In addition, the MIC against Bacillus subtilis [9] stood at 0.2 µg/mL (≈ 0.613 µM); in the assay with Staphylococcus aureus [10], 0.3 µg/mL (≈ 0.92 µM); in the assay with Candida albicans [11] it was 0.2 µg/mL (≈ 0.613 µM); in the assay on Escherichia coli [12] it was 0.2 µg/mL (≈ 0.613 µM).

`O=C1/C(=C\c2ccc(Cl)cc2)SC2(CCCCC2)N1c1ccc(F)cc1`: the result in the assay on Bacillus subtilis [3], in the assay with Aspergillus niger [4] and with Staphylococcus aureus [6] was inactive. Also, the result with Escherichia coli [5] and with Candida albicans [7] was Active.

In the case of `Cc1ccc(-c2c(C#N)c(N)nc3c2SC2(CCCCC2)N3c2ccc(F)cc2)cc1`, the Activity turned out to be 55.84% in the assay on MCF7, 45% in the assay with HepG2, 54.6% in [1] and 85% in assay [2]. In addition, the result with Bacillus subtilis [3], with Aspergillus niger [4] and in the assay on Escherichia coli [5] was inactive. In addition, the outcome in the assay on Staphylococcus aureus [6] and in the assay on Candida albicans [7] was Active.
